# Results published in patent US7608587B2, “Exendin 4 polypeptide fragment” (Changzhou Pharmaceutical Factory, priority 2005, dated 2009).
# Tests used:
# [1] = test system: diabetic animal models; assay: hypoglycemic activity across the diabetic animal models of examples 3-7 (overall statement); format: in vivo; details: assays of examples 3, 4, 5, 6, 7
# Description: The effect of hypoglycemic levels of the polypeptide in the present invention is validated with the routine methods in the art, such as the experiments of cell biology, the animal experiments, etc. In embodiments of the present invention, in order to overcome the limitations of the experiments in vitro, preferably employed diabetic animal models to assay the effect of hypoglycemic levels, such as db/db II diabetic mice, Goto-Kokizaki (GK) II type rat, diabetic KK mice, alloxan induced diabetic mice. These animal experiments indicate the Exendin 4 polypeptide fragment represented by formula (I) in the present invention, has a continuous effect of sustaining hypoglycemic activity in vivo and can be used for the diabetes treatment. KK type II diabetic mice (purchased from Shanghai Laboratory Animal Center, Chinese Academy of Sciences, China) with 50 g body weight are subjected to fasting for 2 hours, and are divided into four groups. Two groups are injected with 2 μg Exendin 4, the other two groups are injected with 2 μg Exendin 4 polypeptide fragment presented in the invention. Twenty microliter blood samples are obtained from fasted animals at 0, 0.5, 1, 2, 3, 4, 5 and 6 h time points respectively after administration of the test substance. The sustained hypoglycemic activity is analyzed by using the blood sugar assay kit (purchased from Shanghai Institute of Biological Products, China). The corresponding results of the Exendin 4 polypeptide fragments having the sequences of SEQ ID NO. 1, SEQ ID NO. 2, SEQ ID NO. 3, SEQ ID NO. 4, SEQ ID NO. 5, SEQ ID NO. 6, SEQ ID NO. 7, SEQ ID NO. 8, SEQ ID NO. 9, SEQ ID NO. 10, SEQ ID NO. 11 and SEQ ID NO. 12 are shown in FIG. 7, FIG. 2, FIG. 12, FIG. 17, FIG. 22, FIG. 27, FIG. 32, FIG. 37, FIG. 42, FIG. 47, FIG. 52 and FIG. 57 respectively. The db/db II diabetic mice (purchased from Shanghai Laboratory Animal Center, Chinese Academy of Sciences and Yangzhou University, China) with 50 g body weight are subjected to fasting for 2 hours, the test animals were administrated by subcutaneous injection of Exendin 4 polypeptide fragment in a dose of 2 μg. 20 μl blood samples were obtained from fasted animals at 0, 0.5, 1 and 2 hours time points respectively after administration of the test substance. The sustained hypoglycemic activity is analyzed by using the blood sugar assay kit (purchased from Shanghai Institute of Biological Products, China). The corresponding results of the Exendin 4 polypeptide fragments having the sequences of SEQ ID NO. 1, SEQ ID NO. 2, SEQ ID NO. 3, SEQ ID NO. 4, SEQ ID NO. 5, SEQ ID NO. 6, SEQ ID NO. 7, SEQ ID NO. 8, SEQ ID NO. 9, SEQ ID NO. 10, SEQ ID NO. 11 and SEQ ID NO. 12 are shown in FIG. 8, FIG. 3, FIG. 13, FIG. 18, FIG. 23, FIG. 28, FIG. 33, FIG. 38, FIG. 43, FIG. 48, FIG. 53, FIG. 58 respectively. Five-month-old (body weight 470 g) Goto Kokizaki diabetic rat (purchased from Shanghai Laboratory Animal Center, Chinese Academy of Sciences, China) are taken for the operative procedure. After subjecting to fasting for 2 hours, the test animals were administrated by intraperitoneal injection of 20% glucose in a dose of 1 ml and by subcutaneous injection of Exendin 4 polypeptide fragment in a dose of 5 μg. The control group received only glucose. Twenty microliter blood samples were obtained from fasted animals at 0, 0.5, 1 and 2 hours time points respectively after administration of the test substance. The sustained hypoglycemic activity is determined by using the blood sugar assay kit (purchased from Shanghai Institute of Biological Products, China). The curve 1 indicates the control group. The curve 2 indicates the administration group. Eight-week-old (20 g body weight) mice are taken for the operative procedure. Experimental diabetes in mice was induced by (16 mg/ml) 0.1 ml alloxan by tail vein injection. Animals are divided into five groups. 48 hours later, 2 μg Exendin 4 polypeptide fragment was injected. […]
# [2] = test system: Goto Kokizaki II rats; assay: insulin secretion stimulation in Goto Kokizaki II rats (ELISA); format: in vivo, rat; details: 5 μg subcutaneous, 0-45 minutes
# Description: Six-month-old (470 g body weight) Goto Kokizaki II rats were taken for the operative procedure. The test animals were administrated by subcutaneous injection of Exendin 4 polypeptides in a dose of 5 μg, while the animals of control group only achieved physiological saline solution. 20 μl of blood samples were obtained from fasted animals at 0, 3, 5, 10, 15, 30 and 45 minutes time points respectively after administration of the test substance.
Substance,hypoglycemic activity (in words) [1],insulin secretion of the test group [2]
SEQ ID NO. 62: solid phase Exendin 4 polypeptide variant of example 8; sequence not printed in the text (HGEGTYTSNLSKQMEEEAVKLFIEWLKNGGP; Exendin 4 polypeptide fragment),significant hypoglycemic activity,recovered
SEQ ID NO. 64: solid phase Exendin 4 polypeptide variant of example 8; sequence not printed in the text (HGEGTYTSNLSKQMEEEAVKLFIEWLKNGP; Exendin 4 polypeptide fragment),significant hypoglycemic activity,recovered
SEQ ID NO. 65: solid phase Exendin 4 polypeptide variant of example 8; sequence not printed in the text (HGEGTFTSNLSKQIEEEAVKLFIEWLKNGGP; Exendin 4 polypeptide fragment),significant hypoglycemic activity,recovered
SEQ ID NO. 66: solid phase Exendin 4 polypeptide variant of example 8; sequence not printed in the text (HGEGTYTSNLSKQIEEEAVKLFIEWLKNGGP; Exendin 4 polypeptide fragment),significant hypoglycemic activity,recovered
SEQ ID NO. 67: solid phase Exendin 4 polypeptide variant of example 8; sequence not printed in the text (HGEGTFTSNLSKQIEEEAVKLFIEWLKNGP; Exendin 4 polypeptide fragment),significant hypoglycemic activity,recovered
SEQ ID NO. 68: solid phase Exendin 4 polypeptide variant of example 8; sequence not printed in the text (HGEGTYTSNLSKQIEEEAVKLFIEWLKNGP; Exendin 4 polypeptide fragment),significant hypoglycemic activity,recovered
SEQ ID NO. 69: solid phase Exendin 4 polypeptide variant of example 8; sequence not printed in the text (HGEGTFTSNLSKQLEEEAVKLFIEWLKNGGP; Exendin 4 polypeptide fragment),significant hypoglycemic activity,recovered
SEQ ID NO. 70: solid phase Exendin 4 polypeptide variant of example 8; sequence not printed in the text (HGEGTYTSNLSKQLEEEAVKLFIEWLKNGGP; Exendin 4 polypeptide fragment),significant hypoglycemic activity,recovered
SEQ ID NO. 71: solid phase Exendin 4 polypeptide variant of example 8; sequence not printed in the text (HGEGTFTSNLSKQLEEEAVKLFIEWLKNGP; Exendin 4 polypeptide fragment),significant hypoglycemic activity,recovered
SEQ ID NO. 72: solid phase Exendin 4 polypeptide variant of example 8; sequence not printed in the text (HGEGTYTSNLSKQLEEEAVKLFIEWLKNGP; Exendin 4 polypeptide fragment),significant hypoglycemic activity,recovered
